Reference: US9266834B2, “1, 4-disubstituted 3-cyano-pyridone derivatives and their use as positive allosteric modulators of MGLUR2-receptors” (JANSSEN PHARMACEUTICALS, INC., priority 2006, dated 2016)

How the values were obtained:
human mGluR2 receptor = biological target: T1, human mGluR2 receptor (Homo sapiens, UniProt Q14416); test: [35S]GTPγS binding assay (GTPγS-PAM): positive allosteric modulation in presence of glutamate at EC25, membranes from transfected CHO cells; format: biochemical; settings: in presence of mGluR2 agonist glutamate at predetermined EC25 concentration, averages of duplicate values of 11-concentration response curves; for EC50: read-out: GTPgS - hR2 PAM pEC50 (converted)
T1 construct: expressed in transfected cells; host or cells: CHO cells (membrane preparation)
Summary of the method: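 Membranes came from butyrate-stimulated CHO cells expressing human mGluR2, used at 15 μg/well in HEPES pH 7.4 with 100 mM NaCl, 3 mM MgCl2, 50 μM GDP and saponin. Compound (0.3 nM-50 μM, 11 concentrations) plus glutamate at EC25 was preincubated 30 min at 30° C., then 0.1 nM [35S]GTPγS was added for 30 min. Filter-bound radioactivity was counted, nonspecific binding was taken with 10 μM GTP, and curves were fitted by four-parameter logistic.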

T1 sequence (Q14416 19-872): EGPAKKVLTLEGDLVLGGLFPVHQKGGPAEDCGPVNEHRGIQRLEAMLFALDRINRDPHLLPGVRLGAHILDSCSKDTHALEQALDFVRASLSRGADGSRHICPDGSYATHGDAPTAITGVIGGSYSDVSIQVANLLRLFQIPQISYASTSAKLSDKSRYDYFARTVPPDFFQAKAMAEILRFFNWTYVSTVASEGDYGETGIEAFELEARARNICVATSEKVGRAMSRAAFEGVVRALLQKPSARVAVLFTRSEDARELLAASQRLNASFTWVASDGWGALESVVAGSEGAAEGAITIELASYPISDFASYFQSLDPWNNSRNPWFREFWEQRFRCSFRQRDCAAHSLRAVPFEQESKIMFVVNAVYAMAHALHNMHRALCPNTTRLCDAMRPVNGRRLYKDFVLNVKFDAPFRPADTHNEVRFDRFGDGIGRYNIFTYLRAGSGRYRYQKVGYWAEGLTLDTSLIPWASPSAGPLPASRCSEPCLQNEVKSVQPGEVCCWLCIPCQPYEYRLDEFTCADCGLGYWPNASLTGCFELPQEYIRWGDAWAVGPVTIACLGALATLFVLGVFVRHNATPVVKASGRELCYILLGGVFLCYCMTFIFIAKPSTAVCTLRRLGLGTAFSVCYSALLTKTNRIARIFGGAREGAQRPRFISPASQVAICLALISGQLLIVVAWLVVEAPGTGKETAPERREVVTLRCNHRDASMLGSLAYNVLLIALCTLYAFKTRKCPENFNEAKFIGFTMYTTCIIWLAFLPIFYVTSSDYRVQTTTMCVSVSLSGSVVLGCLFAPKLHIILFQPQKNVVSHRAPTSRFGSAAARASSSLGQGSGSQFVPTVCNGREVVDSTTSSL

melting point	EC50 (human mGluR2 receptor)	GTPgS - hR2 PAM pEC50 (human mGluR2 receptor)	Compound
118 °C	0.794 µM	–	Cc1ccc(Cn2ccc(-c3cccs3)c(C#N)c2=O)cc1 [1-019]
144 °C	3.16 µM	–	CC(=O)NCc1ccc(-c2ccn(CCC(C)C)c(=O)c2C#N)cc1 [1-179, 4-(4-(N-acetylmethyl)phenyl)-3-cyano-1-(3-methylbutyl)pyridine-2(1H)-one]
175 °C	1.58 µM	–	N#Cc1c(N2CCC(N3Cc4ccc(F)cc4C3)CC2)ccn(Cc2ccc(F)cc2)c1=O [4-061]
97 °C	2.51 µM	–	N#Cc1c(-c2ccc(CN3CCOCC3)cc2)ccn(Cc2ccc(OC(F)(F)F)cc2)c1=O [1-033]
149 °C	1.58 µM	–	N#Cc1c(-c2ccccc2)ccn(CC2CCCCC2)c1=O [1-009]
123 °C	0.0398 µM	–	CC(C)CCn1ccc(N2CCC(c3coc4cc(F)ccc34)CC2)c(C#N)c1=O [4-039]
151 °C	1.58 µM	–	CCCCn1ccc(Nc2ccc(Oc3cccnc3)cc2)c(C#N)c1=O [1-296]
120 °C	0.794 µM	–	COC(=O)CCc1ccc(-c2ccn(CCC(C)C)c(=O)c2C#N)cc1 [1-239]
143 °C	0.501 µM	–	CC(=O)N1CCN(c2cccc(-c3ccn(CCC(C)C)c(=O)c3C#N)c2)CC1 [1-230]
188 °C	0.251 µM	–	CC(C)CCn1ccc(NC2CCN(c3ccc(C(F)(F)F)cn3)CC2)c(C#N)c1=O [3-004]
167 °C	2.51 µM	–	N#Cc1c(-c2ccc(CN3CCCCC3)cc2)ccn(Cc2ccc(OC(F)(F)F)cc2)c1=O [1-031]
135 °C	0.2 µM	–	CC(C)CCn1ccc(N2CCN(c3ncccc3C(F)(F)F)CC2)c(C#N)c1=O [2-026]
107 °C	0.398 µM	–	CCCOc1ccc(-c2ccn(CCC(C)C)c(=O)c2C#N)cc1 [1-105]
187 °C	1.58 µM	–	N#Cc1c(NC2CCN(Cc3ccc(OC(F)(F)F)c(Cl)c3)CC2)ccn(CC2CC2)c1=O [3-010]
129 °C	0.316 µM	–	CC(C)CCn1ccc(-c2ccc(OC(C)C)cc2)c(C#N)c1=O [1-111]
159 °C	0.398 µM	–	N#Cc1c(-c2ccc(OC(F)(F)F)cc2)ccn(CC2CCCC2)c1=O [1-007]
117 °C	1.26 µM	–	CC(C)CCn1ccc(-c2ccc3c(c2)CCO3)c(C#N)c1=O [1-251]
70 °C	3.16 µM	–	CC(C)CCn1ccc(-c2cccc(NS(C)(=O)=O)c2)c(C#N)c1=O [1-215]
276 °C	0.0794 µM	–	CC(C)CCn1ccc(N2CCc3c([nH]c4ccccc34)C2)c(C#N)c1=O [5-039]
88 °C	1.26 µM	–	COc1ccc(CCc2ccn(CCC(C)C)c(=O)c2C#N)cc1 [1-265]
136 °C	0.794 µM	–	C[C@@H]1CN(Cc2ccc(-c3ccn(Cc4ccc(OC(F)(F)F)cc4)c(=O)c3C#N)cc2)C[C@H](C)O1 [1-035]
118 °C	2 µM	–	N#Cc1c(-c2cccs2)ccn(CCCc2ccccc2)c1=O [1-052]
165 °C	0.158 µM	–	CC(C)CCn1ccc(-c2ccc(OCc3ccc(Cl)nc3)cc2)c(C#N)c1=O [1-164]
134 °C	6.31 µM	–	CC(C)CCn1ccc(N2CCCc3ccccc32)c(C#N)c1=O [5-031]
209 °C	2.51 µM	–	CC(C)CCn1ccc(OCCN(C)Cc2cccc(F)c2)c(C#N)c1=O [1-293]

melting point	EC50 (human mGluR2 receptor)	GTPgS - hR2 PAM pEC50 (human mGluR2 receptor)	Compound
198 °C	5.01 µM	–	CC(=O)Nc1ccc(-c2ccn(CCC(C)C)c(=O)c2C#N)cc1 [1-176]
168 °C	0.0631 µM	–	CC(C)CCn1ccc(-c2ccc(C(C)(C)C)cc2)c(C#N)c1=O [1-086]
217 °C	0.398 µM	–	CC(C)CCn1ccc(-c2ccc(C(=O)N3CCN(Cc4ccc(OC(F)(F)F)c(Cl)c4)CC3)cc2)c(C#N)c1=O [1-247]
157 °C	0.251 µM	–	N#Cc1c(N2CCC(N(Cc3cccc(F)c3)C3CC3)CC2)ccn(Cc2ccc(F)cc2)c1=O [4-059]
122 °C	0.316 µM	–	CCCCn1ccc(-c2ccc(N3CCCCC3)cc2)c(C#N)c1=O [1-058]
208 °C	6.31 µM	–	CC(C)CCn1ccc(OC2CCN(Cc3ccccc3)CC2)c(C#N)c1=O [3-007]
110 °C	0.251 µM	–	N#Cc1c(N2CCN(CCc3ccccc3)CC2)ccn(Cc2ccc(OC(F)(F)F)cc2)c1=O [2-043]
143 °C	0.1 µM	–	CC1CCC(Cn2ccc(-c3ccc(OC(F)(F)F)cc3)c(C#N)c2=O)CC1 (stereo not drawn) [1-014]
169 °C	1.58 µM	–	COc1ccc2c(c1)C1CCCN(c3ccn(CCC(C)C)c(=O)c3C#N)C1CC2 (stereo not drawn) [5-035]
288 °C	1 µM	–	CC(C)CCn1ccc(N2CCN(c3nc4ccccc4o3)CC2)c(C#N)c1=O [2-035]
119 °C	0.501 µM	–	CC(C)CCn1ccc(-c2ccc(NCCC3(C)OCCO3)cc2)c(C#N)c1=O [1-192]
171 °C	0.0501 µM	–	CC(C)CCn1ccc(-c2ccc(OCc3ccc(C#N)cc3)cc2)c(C#N)c1=O [1-153]
112 °C	1 µM	–	CC(C)Cn1ccc(N2CCN(Cc3ccc(OC(F)(F)F)c(Cl)c3)CC2)c(C#N)c1=O [2-010]
214 °C	0.398 µM	–	CC(C)CCn1ccc(N2CCC(c3nc4ccccc4o3)CC2)c(C#N)c1=O [4-038]
166 °C	0.251 µM	–	N#Cc1c(-c2ccc3[nH]ccc3c2)ccn(Cc2ccc(OC(F)(F)F)cc2)c1=O [5-051]
148 °C	–	–	CC(C)CCn1ccc(-c2ccc(CN3CCOCC3)cc2)c(C#N)c1=O [1-229]
169 °C	–	–	CC(C)CCn1ccc(-c2ccc(CCC(=O)O)cc2)c(C#N)c1=O [1-240]
157 °C	–	–	CC(=O)NCc1cccc(-c2ccn(CCC(C)C)c(=O)c2C#N)c1 [1-178]
151 °C	–	–	CC(C)CCn1ccc(-c2ccc(-n3ccnc3)cc2)c(C#N)c1=O [1-235]
135 °C	–	–	CCCn1ccc(-c2cccs2)c(C#N)c1=O [1-050]
145 °C	–	–	CC(C)CCn1ccc(-c2ccc(CO)cc2)c(C#N)c1=O [1-098]
234 °C	–	–	CC(C)CCn1ccc(-n2ncc3ccccc32)c(C#N)c1=O [5-029]
96 °C	–	–	CC(C)CCn1ccc(-c2ccc(C(=O)NCc3ccncc3)cc2)c(C#N)c1=O [1-213]
142 °C	–	–	CC(C)CCn1ccc(-c2ccccc2)c(C#N)c1=O [1-084]
128 °C	–	–	N#Cc1c(N2CCC(c3ccccc3)CC2)ccn(CC2CC2)c1=O [4-047, 3-cyano-1-cyclopropylmethyl-4-(4-phenyl-piperidin-1-yl)-pyridine-2(1H)-one]

melting point	EC50 (human mGluR2 receptor)	GTPgS - hR2 PAM pEC50 (human mGluR2 receptor)	Compound
159 °C	–	–	CC(C)CCn1ccc(OCCN2CCN(c3ccccn3)CC2)c(C#N)c1=O [2-036]
83 °C	–	–	CC(C)CCn1ccc(OCCOCc2ccccc2)c(C#N)c1=O [1-281]
–	–	6.4	CCCCn1ccc(-c2ccc(Oc3ccnc(C)c3)cc2)c(C#N)c1=O [1-064, 3-cyano-1-butyl-4-[4-(2-methyl-pyridin-4-yloxy)-phenyl]-pyridine-2(1H)-one]
156 °C	–	–	CNC(=O)COc1ccc(-c2ccn(CCC(C)C)c(=O)c2C#N)cc1 [1-127]
–	0.316 µM	–	COc1cc(-c2ccn(CCC(C)C)c(=O)c2C#N)ccc1OCc1ccccc1 [1-142]
–	2 µM	–	CCOc1ccc(-c2ccn(CCC(C)C)c(=O)c2C#N)cc1 [1-104]
–	0.398 µM	–	COC1CCN(c2ccc(-c3ccn(CCC(C)C)c(=O)c3C#N)cc2)CC1 [1-221]
–	1 µM	–	COc1ccc(-c2ccn(Cc3cccc(C)c3)c(=O)c2C#N)cc1 [1-017]
–	2 µM	–	CC(C)CCn1ccc(N2CCN(c3ccc(-c4ccccc4)nn3)CC2)c(C#N)c1=O [2-033]
–	2 µM	–	CC(C)CCn1ccc(-c2ccc(-n3ccnn3)cc2)c(C#N)c1=O [1-236]
–	0.0631 µM	–	CC(C)CCn1ccc(N2CCC(c3ccccc3)CC2)c(C#N)c1=O [4-014]
–	2.51 µM	–	CC(C)CCn1ccc(-c2ccc(NC3CCS(=O)(=O)CC3)cc2)c(C#N)c1=O [1-217]
–	3.98 µM	–	CCCCn1ccc(N2CCC(c3cccnc3)CC2)c(C#N)c1=O [4-002]
–	0.126 µM	–	CC(C)CCn1ccc(N2CCC(OCc3cccc(C(F)(F)F)c3)CC2)c(C#N)c1=O [4-020]
–	0.251 µM	–	CC(C)CCn1ccc(N2CCc3ccccc3C2)c(C#N)c1=O [5-003]
–	3.98 µM	–	CC(C)CCn1ccc(-c2ccc(N3CCCC3=O)cc2)c(C#N)c1=O [1-249]
–	0.251 µM	–	COc1cc(-c2ccn(CCC(C)C)c(=O)c2C#N)ccc1NC(C)C [1-183]
–	0.126 µM	–	CC(C)Oc1ccc(-c2ccn(CCOc3ccccc3)c(=O)c2C#N)cc1Cl [1-049]
–	0.126 µM	–	CC(C)CCn1ccc(N2CCC(c3noc(-c4ccccc4)n3)CC2)c(C#N)c1=O [4-041]
–	0.631 µM	–	CC(C)CCn1ccc(-c2ccc(OCCC3(C)OCCO3)cc2)c(C#N)c1=O [1-136]
–	0.1 µM	–	CC(C)CCn1ccc(N2CCC(N(C)Cc3cccc(C(F)(F)F)c3)CC2)c(C#N)c1=O [4-028]
–	1 µM	–	CC(C)CCn1ccc(CCc2ccc(N(C)C)cc2)c(C#N)c1=O [1-263]
–	5.01 µM	–	N#Cc1c(N2CCN(Cc3ccccc3)CC2)ccn(CCOCc2ccccc2)c1=O [2-054]
–	0.0398 µM	–	CC(C)CCn1ccc(-c2ccc(N(C)Cc3ccccc3)cc2)c(C#N)c1=O [1-196]
